Experimental data reported in US10093630B2, “Pyrazole compounds and methods of making and using same” (ABIDE THERAPEUTICS, INC., priority 2014, dated 2018).
Where two headings read alike, the source gives them in different places.

Assays:
Assay in all cases: In vitro competitive activity-based protein profiling (gel-based, FP-Rh or HT-01 probe)
Type in all cases: biochemical
PLA2G7 = molecular target: T1, PLA2G7 (Mus musculus, UniProt Q60963); details: for inhibition at 1 µM: 1 μM inhibitor, read-out: % Inhibition at 1 μM, D = PLA2G7; for inhibition at 10 µM: 10 μM inhibitor, read-out: % Inhibition at 10 μM, D = PLA2G7
T1 construct: Proteomes (mouse brain membrane fraction or cell lysates); from tissue; host or cells: mouse brain membrane fraction (or cell lysates, not specified)
T1 sequence (Q60963 22-440): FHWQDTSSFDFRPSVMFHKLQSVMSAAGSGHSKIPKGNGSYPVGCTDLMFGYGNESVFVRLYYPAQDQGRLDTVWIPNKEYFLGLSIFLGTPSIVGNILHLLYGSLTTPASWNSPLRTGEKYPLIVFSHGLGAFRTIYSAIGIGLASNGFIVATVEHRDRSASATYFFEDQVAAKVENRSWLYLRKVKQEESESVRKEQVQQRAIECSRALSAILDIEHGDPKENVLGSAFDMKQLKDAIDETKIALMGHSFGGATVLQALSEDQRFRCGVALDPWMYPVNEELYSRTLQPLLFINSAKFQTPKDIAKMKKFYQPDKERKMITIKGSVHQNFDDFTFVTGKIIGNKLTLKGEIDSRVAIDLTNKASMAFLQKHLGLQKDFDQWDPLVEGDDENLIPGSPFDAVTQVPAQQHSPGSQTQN
Summary of the method: (§1)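 Competitive labelling format in mouse brain membrane fractions or lysates at 1.0 mg/mL total protein: compounds preincubate 30 min at 37° C, activity probe FP-Rh or HT-01 then reacts 30 min at 37° C. Gel band fluorescence gives target activity.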

FAAH = molecular target: T2, FAAH (Mus musculus, UniProt O08914); details: for inhibition at 1 µM: 1 μM inhibitor, read-out: % Inhibition at 1 μM, B = FAAH; for inhibition at 10 µM: 10 μM inhibitor, read-out: % Inhibition at 10 μM, B = FAAH; for IC50: mouse brain membrane fraction or cell lysates, 30 min preincubation at 37° C., read-out: Mouse (IC50 value, nM) FAAH
T2 construct: Proteomes (mouse brain membrane fraction or cell lysates); from tissue; host or cells: mouse brain membrane fraction (or cell lysates, not specified)
T2 sequence (O08914 1-579): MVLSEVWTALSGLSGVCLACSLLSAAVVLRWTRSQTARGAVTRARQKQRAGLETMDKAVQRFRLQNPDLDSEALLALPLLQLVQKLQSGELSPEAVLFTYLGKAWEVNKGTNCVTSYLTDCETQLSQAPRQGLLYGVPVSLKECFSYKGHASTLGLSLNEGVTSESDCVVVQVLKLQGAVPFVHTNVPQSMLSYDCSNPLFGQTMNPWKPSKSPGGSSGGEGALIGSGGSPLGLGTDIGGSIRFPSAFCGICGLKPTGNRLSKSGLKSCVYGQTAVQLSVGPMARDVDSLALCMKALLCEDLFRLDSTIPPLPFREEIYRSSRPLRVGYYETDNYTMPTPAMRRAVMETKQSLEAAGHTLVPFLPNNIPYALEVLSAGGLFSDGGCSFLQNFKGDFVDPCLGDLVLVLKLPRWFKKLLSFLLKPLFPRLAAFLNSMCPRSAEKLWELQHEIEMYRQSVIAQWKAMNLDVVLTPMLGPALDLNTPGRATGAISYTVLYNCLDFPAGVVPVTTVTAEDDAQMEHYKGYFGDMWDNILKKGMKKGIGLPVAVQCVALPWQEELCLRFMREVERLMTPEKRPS
Summary of the method: as §1

ABHD6 = molecular target: T3, ABHD6 (Mus musculus, UniProt Q8R2Y0); details: for inhibition at 1 µM: 1 μM inhibitor, read-out: % Inhibition at 1 μM, C = ABHD6; for inhibition at 10 µM: 10 μM inhibitor, read-out: % Inhibition at 10 μM, C = ABHD6; for IC50: mouse brain membrane fraction or cell lysates, 30 min preincubation at 37° C., read-out: Mouse (IC50 value, nM) ABHD6
T3 construct: Proteomes (mouse brain membrane fraction or cell lysates); from tissue; host or cells: mouse brain membrane fraction (or cell lysates, not specified)
T3 sequence (Q8R2Y0 1-336): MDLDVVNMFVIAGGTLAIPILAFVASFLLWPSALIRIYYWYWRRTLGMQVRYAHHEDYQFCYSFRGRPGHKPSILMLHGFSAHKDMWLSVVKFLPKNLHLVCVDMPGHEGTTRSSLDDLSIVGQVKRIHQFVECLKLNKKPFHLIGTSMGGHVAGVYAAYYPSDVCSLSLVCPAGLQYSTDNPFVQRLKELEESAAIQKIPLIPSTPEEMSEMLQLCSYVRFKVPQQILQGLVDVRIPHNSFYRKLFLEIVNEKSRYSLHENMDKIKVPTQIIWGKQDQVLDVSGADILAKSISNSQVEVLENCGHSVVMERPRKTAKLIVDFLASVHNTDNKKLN
Summary of the method: as §1

MAGL = molecular target: T4, MAGL (Mus musculus, UniProt O35678); details: for inhibition at 1 µM: 1 μM inhibitor; for inhibition at 10 µM: 10 μM inhibitor; for IC50: mouse brain membrane fraction or cell lysates, 30 min preincubation at 37° C., read-out: Mouse (IC50 value, nM) MAGL
T4 construct: Proteomes (mouse brain membrane fraction or cell lysates); from tissue; host or cells: mouse brain membrane fraction (or cell lysates, not specified)
T4 sequence (O35678 1-303): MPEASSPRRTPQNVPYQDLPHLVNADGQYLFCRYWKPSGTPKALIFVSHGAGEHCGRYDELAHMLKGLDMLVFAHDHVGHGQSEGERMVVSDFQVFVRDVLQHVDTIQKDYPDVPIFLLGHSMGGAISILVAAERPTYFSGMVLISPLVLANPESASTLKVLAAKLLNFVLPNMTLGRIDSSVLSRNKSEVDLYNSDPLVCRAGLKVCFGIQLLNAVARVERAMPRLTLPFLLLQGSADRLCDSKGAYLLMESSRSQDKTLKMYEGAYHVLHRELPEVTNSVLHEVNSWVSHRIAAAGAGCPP
Summary of the method: as §1

| Structure (SMILES) | inhibition at 1 µM (PLA2G7) [%] | inhibition at 10 µM (PLA2G7) [%] | inhibition at 1 µM (FAAH) [%] | inhibition at 10 µM (FAAH) [%] | inhibition at 1 µM (ABHD6) [%] | inhibition at 10 µM (ABHD6) [%] | inhibition at 1 µM (MAGL) [%] | inhibition at 10 µM (MAGL) [%] | IC50 (FAAH) [nM] | IC50 (ABHD6) [nM] | IC50 (MAGL) [nM] | inhibition at 1 µM (PLA2G7; gel-based competitive ABPP) [%] | IC50 (PLA2G7; mouse brain membrane fraction or cell lysates, 30 min preincubation at 37° C.) [nM] | inhibition at 1 µM (FAAH; gel-based competitive ABPP) [%] | inhibition at 1 µM (ABHD6; gel-based competitive ABPP) [%] | inhibition at 1 µM (MAGL; gel-based competitive ABPP) [%] |
| --- | --- | --- | --- | --- | --- | --- | --- | --- | --- | --- | --- | --- | --- | --- | --- | --- |
| O=C(Nc1ccc2ccccc2c1)n1cccn1 [Example 40, N-(Naphthalen-2-yl)-1H-pyrazole-1-carboxamide] | < 25 | < 25 | < 25 | < 25 | < 25 | < 25 | < 25 | > 75 | – | – | – | – | – | – | – | – |
| COc1cc(-c2ccccc2)ccc1CN1CCN(C(=O)n2cc(Cl)cn2)CC1 [Example 141, (4-Chloro-1H-pyrazol-1-yl)(4-((3-methoxybiphenyl-4-yl)methyl)piperazin-1-yl)methanone] | < 25 | > 75 | > 75 | > 75 | > 75 | > 75 | > 75 | > 75 | 100 to 1000 | 100 to 1000 | < 100 | – | – | – | – | – |
| Cc1cnn(C(=O)N2CCN(S(C)(=O)=O)CC2)c1 [Example 162, (4-Methyl-1H-pyrazol-1-yl)(4-(methylsulfonyl)piperazin-1-yl)methanone] | < 25 | > 75 | < 25 | < 25 | < 25 | 25 to 75 | < 25 | < 25 | – | – | – | – | – | – | – | – |
| CCN(Cc1ccc(OC)cc1)C(=O)n1cc(C#N)cn1 [Example 258, 4-Cyano-N-ethyl-N-(4-methoxybenzyl)-1H-pyrazole-1-carboxamide] | – | – | – | – | – | – | – | – | < 100 | > 1000 | 100 to 1000 | < 25 | > 1000 | > 75 | < 25 | > 75 |
| N#Cc1cnn(C(=O)N2CCCN(Cc3cccc(Oc4ccccc4)c3)CC2)c1 [Example 299, 1-(4-(3-Phenoxybenzyl)-1,4-diazepane-1-carbonyl)-1H-pyrazole-4-carbonitrile] | – | – | – | – | – | – | – | – | – | – | – | < 25 | – | > 75 | > 75 | > 75 |
| Cc1cnn(C(=O)N2CCN(Cc3ccc(-c4ccccc4)cc3)CC2)c1 [Example 23, (4-([1,1′-Biphenyl]-4-ylmethyl)piperazin-1-yl)(4-methyl-1H-pyrazol-1-yl)methanone] | < 25 | > 75 | < 25 | 25 to 75 | 25 to 75 | > 75 | > 75 | > 75 | – | – | – | – | – | – | – | – |
| N#Cc1cnn(C(=O)NCCCc2ccccc2)c1 [Example 33, 4-Cyano-N-(3-phenylpropyl)-1H-pyrazole-1-carboxamide] | < 25 | < 25 | < 25 | > 75 | < 25 | < 25 | < 25 | < 25 | – | – | – | – | – | – | – | – |
| COC(=O)c1cnn(C(=O)N2CCN(Cc3ccc4ccccc4c3)CC2)c1 [Example 15, Methyl 1-(4-(naphthalen-2-ylmethyl)piperazine-1-carbonyl)-1H-pyrazole-4-carboxylate] | > 75 | > 75 | > 75 | > 75 | > 75 | > 75 | > 75 | > 75 | – | – | – | – | – | – | – | – |
| N#Cc1cnn(C(=O)N2CCN(Cc3ccc(Oc4ccccc4)cc3)CC2)c1 [Example 18, 1-(4-(4-Phenoxybenzyl)piperazine-1-carbonyl)-1H-pyrazole-4-carbonitrile] | > 75 | > 75 | > 75 | > 75 | > 75 | > 75 | > 75 | > 75 | – | – | – | – | – | – | – | – |
| O=C(c1cnn(C(=O)N2CCN(Cc3cccnc3)CC2)c1)N1CCOCC1 [Example 53, (4-(Morpholine-4-carbonyl)-1H-pyrazol-1-yl)(4-(pyridin-3-ylmethyl)piperazin-1-yl)methanone] | < 25 | > 75 | – | < 25 | < 25 | > 75 | – | 25 to 75 | – | – | – | – | – | – | – | – |
| O=C(N1CCN(c2ccc(N3CCOCC3)cc2)CC1)n1cc(C(F)(F)F)cn1 [Example 238, (4-(4-Morpholinophenyl)piperazin-1-yl)(4-(trifluoromethyl)-1H-pyrazol-1-yl)methanone] | > 75 | > 75 | > 75 | > 75 | > 75 | > 75 | > 75 | > 75 | – | – | – | – | – | – | – | – |
| O=C(NCc1ccc2ccccc2c1)n1cccn1 [Example 43, N-(Naphthalen-2-ylmethyl)-1H-pyrazole-1-carboxamide] | < 25 | < 25 | < 25 | > 75 | < 25 | < 25 | < 25 | 25 to 75 | – | – | – | – | – | – | – | – |
| Cc1cnn(C(=O)N2CCN(Cc3ccc(OCc4ccccc4)cc3)CC2)c1 [Example 20, (4-(4-(Benzyloxy)benzyl)piperazin-1-yl)(4-methyl-1H-pyrazol-1-yl)methanone] | < 25 | 25 to 75 | < 25 | > 75 | 25 to 75 | > 75 | 25 to 75 | > 75 | – | – | – | – | – | – | – | – |
| O=C(c1cnn(C(=O)N2CCN(C(c3ccc(Cl)cc3)c3ccc(Cl)cc3)CC2)c1)N1CCOCC1 [Example 67, (4-(Bis(4-chlorophenyl)methyl)piperazin-1-yl)(4-(morpholine-4-carbonyl)-1H-pyrazol-1-yl)methanone] | > 75 | > 75 | < 25 | 25 to 75 | > 75 | > 75 | > 75 | > 75 | > 1000 | 100 to 1000 | 100 to 1000 | – | – | – | – | – |
